Common to all, as to assay: NCI tumour cell line growth inhibition, 48 h
Assay [1] deals with NCI-H23 lung.
The test system of assay [2] is NCI-H522 lung.
Assay [3] has as its system RPMI-8226 leukemia.
For assay [4], the system named is LOX IMVI melanoma.
Assay [5] deals with HT29 colon.
Assay [6] relates to HOP-92 NSCLC.
Assay [7] has as its system M14 melanoma.
In assay [8] the test system is PC-3 prostate.
Assay [9] has as its system K-562 leukemia.
In assay [10] the test system is MOLT-4 leukemia.
Assay [11] concerns DU-145 prostate.
The test system of assay [12] is A549 NSCLC.
In assay [13] the test system is MCF7 breast.
The test system of assay [14] is OVCAR-5 ovarian.
Assay [15] concerns ACHN renal.
The subject of assay [16] is T-47D breast.
Assay [17] concerns OVCAR-8 ovarian.
In assay [18] the test system is MDA-MB-231 breast.
For assay [19], the system named is SR leukemia.

Each structure is given as a SMILES string.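 Briefly, cells in 96-well plates were exposed to five compound concentrations for 48 h, and endpoints were estimated by linear interpolation. At the TGI there is no net growth.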 Bounds are passed on as bounds.

With `CCOC(=O)C1(C#N)C(=O)c2cc[n+](CC[n+]3ccc4c(c3)C(=O)C(C#N)(C(=O)OCC)C4=O)cc2C1=O` (centres undefined), the TGI in [1], in assay [2], in [3], in assay [4], in assay [5] and in [6] was above 100 µM in each case. For the same molecule, the TGI in assay [7], in assay [8], in assay [9], in assay [10], in assay [11] and in [12] was above 100 µM each time. Also, the TGI in assay [13], in [14], in assay [15], in assay [16], in assay [17] and in assay [18] was above 100 µM throughout.

Consider `COc1cc2cc(C(=O)N3CC(CCl)c4ccc([N+](=O)[O-])cc43)[nH]c2c(OC)c1OC` (centres undefined), for which the TGI is above 100 µM in assay [1]; above 100 µM in [2]; above 100 µM in [3]; above 100 µM in assay [4]; 36.7 µM in [5]; above 100 µM in assay [6]. Besides, the TGI in assay [7], in assay [8], in [9], in [10], in assay [11] and in assay [12] was above 100 µM each time. Moreover, the TGI in assay [13], in assay [14], in assay [15], in [16], in assay [17] and in assay [18] was above 100 µM each time.

For `CN(C)Cc1cc(C(=O)/C=C/c2ccc(Cl)c(Cl)c2)cc(CN(C)C)c1O`, the TGI in [1] is 19.9 µM; in assay [2], 3.31 µM; in assay [3], above 100 µM; in assay [4], 2 µM; in [5] it was 2.79 µM; in assay [6], 3.85 µM. Besides, the TGI came out at 4.34 µM in assay [7]; 5.32 µM in assay [8]; 4.74 µM in [9]; 10.5 µM in assay [10]; 15.9 µM in assay [11]; 8.47 µM in assay [12]. For the same molecule, the TGI was 12.3 µM in assay [13]; 20.9 µM in [14]; 11.6 µM in [15]; 19.9 µM in assay [16]; 4.9 µM in assay [17]; 14.3 µM in [18].

Regarding `O=C(O)CC(NC(=O)/C(=C/c1ccccc1)NC(=O)c1ccccc1)C(=O)O` (centres undefined), the TGI in assay [1], in assay [2], in assay [3], in [4], in assay [5] and in [6] was above 100 µM each time. Further, the TGI in assay [7], in [8], in [9], in assay [10], in assay [11] and in assay [12] was above 100 µM in each case. Also, the TGI in [13], in [14], in assay [15], in [16], in [17] and in [18] was above 100 µM throughout.

Consider `CN/C=C(\C(=O)c1ccc(OC)c(OC)c1)c1ccc(OC)cc1`, for which the TGI in [1] was above 100 µM; in assay [2], 36 µM; in [3], 24.4 µM; in assay [4], 29.8 µM; in [5], 38.2 µM; in [7], 37 µM. In addition, the TGI is 27.1 µM in assay [9]; 62 µM in assay [10]; above 100 µM in [12]; 75.1 µM in assay [15]; 60.7 µM in assay [19]; 30.4 µM in assay [17].

As to `CCOC(=O)CC[C@H](NC(=O)N[C@H](C)c1ccccc1)C(=O)OCC`, the TGI was above 100 µM in [1]; above 100 µM in assay [3]; above 100 µM in [4]; above 100 µM in assay [5]; 39.3 µM in assay [6]; 28.2 µM in assay [7]. The TGI in assay [8] was above 100 µM; in [9] it was above 100 µM; in assay [10], 52.5 µM; in assay [11], above 100 µM; in assay [12], above 100 µM; in assay [13], above 100 µM. Also, the TGI in [14], in assay [15], in [19], in assay [17] and in assay [18] was above 100 µM throughout.

Take `CC(C)(C)C1CCC2c3c([nH]c4ccccc34)C3C(=O)N(c4ccccc4Cl)C(=O)C3C2C1` (centres undefined): the TGI in [1] was 62.7 µM; in assay [3] it was above 100 µM; in assay [4] it was 28.5 µM; in [5], 28.4 µM; in [6] it was 0.739 µM; in assay [7], 45.7 µM. Further, the TGI in assay [8] is 28 µM; in assay [9], above 100 µM; in [10], above 100 µM; in assay [11], 42.7 µM; in assay [12], 86.5 µM; in [15] it was 70.2 µM. Also, the TGI in assay [19] is above 100 µM; in [17] it was 50 µM; in [18] it was 24.6 µM.

`CC(c1ccc2c(c1)CCC1C2CC2OC23CC=CC(=O)[C@]13C)C1C[C@]2(C)O[C@]2(C)[C@H](O)O1` (some centres undefined): the TGI was 25.2 µM in [1]; above 100 µM in assay [2]; above 100 µM in assay [3]; above 100 µM in assay [4]; above 100 µM in assay [5]; above 100 µM in assay [6]. For the same molecule, the TGI in assay [7] was 33.7 µM; in assay [9], above 100 µM; in assay [10], above 100 µM; in assay [12], above 100 µM; in assay [14] it was above 100 µM; in assay [15], above 100 µM. For the same molecule, the TGI in assay [19] is 53.6 µM; in assay [17], above 100 µM.

`COc1ccc(N2C(=O)C3c4[nH]c5ccccc5c4C4CC(C)(C)CC(C)(C)C4C3C2=O)cc1` (centres undefined): the TGI is 33.9 µM in assay [1]; 38.1 µM in assay [2]; above 100 µM in assay [3]; above 100 µM in assay [5]; 28.7 µM in assay [6]; 41.8 µM in assay [7]. In addition, the TGI is above 100 µM in assay [9]; 36.6 µM in [10]; 27.3 µM in assay [12]; 31.9 µM in [15]; 25.7 µM in [19]; 11.1 µM in assay [17].

Turning to `COc1ccc2[nH]c3c(c2c1)CC(=O)N1CCCC(CC3O)C1` (centres undefined), the TGI in assay [1], in [2], in [3], in assay [4], in assay [5] and in assay [6] was above 100 µM in each case. Moreover, the TGI in assay [8], in [9], in assay [11], in assay [12], in assay [13] and in [15] was above 100 µM throughout. Further, the TGI in assay [16], in [17] and in assay [18] was above 100 µM in each case.

Regarding `CCOC(=O)C1=C(C)NC2=C(C(=O)N(c3ccccc3)C2c2ccccc2)C1c1ccccc1` (centres undefined), the TGI in assay [1] was 33.7 µM; in [2], 25.9 µM; in assay [3], 53.4 µM; in assay [4] it was 34.4 µM; in [5], 37.2 µM; in [6] it was 25.8 µM. Further, the TGI in assay [7] was 32.1 µM; in assay [9], above 100 µM; in [10], 56.2 µM; in assay [12], 44.2 µM; in assay [14] it was 29.8 µM; in assay [15], 27 µM. The TGI in assay [19] was 45.5 µM; in assay [17], 53.4 µM.

Consider `CC(C)(C)C1CCC2c3c([nH]c4ccccc34)C3C(=O)N(c4ccccc4[N+](=O)[O-])C(=O)C3C2C1` (centres undefined), for which the TGI in assay [1] is 22.1 µM; in [3], above 100 µM; in assay [4], 31.4 µM; in [5], 20.1 µM; in [6], 9.1 µM; in assay [7], 33.8 µM. For the same molecule, the TGI in assay [8] was 26.1 µM; in assay [9], 27.8 µM; in assay [11], 22.4 µM; in assay [12], 33.9 µM; in assay [13] it was 39.1 µM; in assay [14], 50.5 µM. For the same molecule, the TGI is 61.3 µM in assay [15], above 100 µM in assay [19], above 100 µM in assay [17] and 27.2 µM in [18].

For `Oc1[nH]c(=S)[nH]c1/C=C1/C(c2ccccc2)=Nc2ccccc21`, the TGI in assay [1] stood at 29 µM; in [2], 26.3 µM; in assay [3], 36.2 µM; in assay [4] it was 24.3 µM; in assay [5] it was 30.5 µM; in [8] it was 25.6 µM. For the same molecule, the TGI in [9] came to 33.7 µM; in assay [10], 32.1 µM; in assay [13], 28.5 µM; in assay [14], 36.1 µM; in assay [15], 78 µM; in assay [19], 27.9 µM. The figures for the TGI in assay [17] and in assay [18] were 28.8 µM and 33.5 µM, respectively.

As for `CC(=O)c1cc2c(s1)C(=O)c1sccc1C2=O`, the TGI came out at 0.0378 µM in [1]; 0.0521 µM in assay [2]; 0.191 µM in assay [3]; 0.0249 µM in assay [4]; 0.426 µM in assay [5]; 0.746 µM in [6]. The TGI was found to be 0.133 µM in assay [8]; 0.174 µM in [9]; 0.292 µM in assay [10]; 0.0995 µM in assay [11]; 0.433 µM in assay [12]; 36.8 µM in [13]. In addition, the TGI in assay [14] was 0.158 µM; in [16], 0.7 µM; in [17], 0.227 µM; in assay [18] it was 0.151 µM.

For the molecule `C/C(N)=C/C(=O)c1[nH]c(C(=O)O)cc1C1CCN(Cc2ccccc2)C1=O` (centres undefined), the TGI in [1] is 47.9 µM; in [2], 49.2 µM; in assay [3], 44.7 µM; in assay [5], above 100 µM; in assay [6], 55 µM; in assay [7] it was 39 µM. Besides, the TGI in assay [8] is above 100 µM; in assay [9], 59 µM; in assay [10], 57.9 µM; in [11], 84.3 µM; in [12], above 100 µM; in assay [13], 95.8 µM. Moreover, the TGI in assay [14] was above 100 µM; in assay [15] it was above 100 µM; in assay [16] it was 74.9 µM; in [17], 50.8 µM; in assay [18], above 100 µM.

`CC(=O)OCC1OC(OC2C(COC(C)=O)OC(Sc3ccccc3C)C(OC(C)=O)C2OC(C)=O)C(OC(C)=O)C(OC(C)=O)C1OC(C)=O` (centres undefined): the TGI in assay [1], in [2], in assay [3], in [5], in assay [6] and in [7] was above 100 µM each time. The TGI in assay [9], in assay [10], in [12], in assay [14], in assay [15] and in assay [19] was above 100 µM throughout.

Take `COC(=O)[C@@]1(C)C(=O)CC[C@@H]1C=O`: the TGI in assay [1], in assay [2], in [3], in assay [4], in assay [5] and in assay [7] was above 100 µM each time. Further, the TGI in [9], in assay [10], in assay [12], in assay [14], in assay [15] and in assay [19] was above 100 µM each time. Also, the TGI in assay [17] was above 100 µM.

The values above are taken from PubChem BioAssay (NCI).
